Like-named read-outs stand apart in the source and are kept apart here.

The test system of series [1] is Magnaporthe grisea (Pyricularia oryzae—PYRIOR). Briefly: microbe, parasite or virus in culture. It counts as cell-based. Particulars: Pyricularia oryzae, read-out: PYRIOR in vitro Growth Inhibition.
Series [2] has as its system Rhizoctonia solani (RHIZSO). Description: microbe, parasite or virus in culture. In kind it is cell-based. Particulars: Rhizoctonia solani, read-out: RHIZSO in vitro Growth Inhibition.
In series [3] the test system is Mycosphaerella graminicola (Septoria tritici—SEPTTR). Description: In vitro fungal growth inhibition, Mycosphaerella graminicola (SEPTTR). Particulars: Zymoseptoria tritici, read-out: SEPTTR in vitro Growth Inhibition. In kind it is cell-based.
Series [4] concerns Stagonospora nodorum (Leptosphaeria nodorum—LEPTNO). Description: In vitro fungal growth inhibition, Stagonospora nodorum (LEPTNO). Particulars: Leptosphaeria, read-out: LEPTNO in vitro Growth Inhibition. It counts as cell-based.
The next series has as its system Ustilago maydis (USTIMA). Briefly: microbe, parasite or virus in culture. It counts as cell-based. Particulars: Mycosarcoma maydis, read-out: USTIMA in vitro Growth Inhibition.
Series [5] concerns Phytophthora infestans (PHYTIN). Description: microbe, parasite or virus in culture. It counts as cell-based. Particulars: Phytophthora infestans, read-out: PHYTIN in vitro Growth Inhibition.
Series [6] has as its system Phytophthora infestans—PHYTIN. Briefly: whole plant or invertebrate. It counts as in vivo. Particulars: Phytophthora, in Solanum lycopersicum, 24 h, read-out: PHYTIN in vivo 1 Day Protectant.
Series [7] has as its system Puccinia recondita—PUCCRT. Briefly: Brown Rust of Wheat, in vivo whole plant, 24 Hour Protectant. Particulars: control of fungal infection vs untreated plants; for pest or weed control at 100 ppm: Puccinia, read-out: PUCCRT in vivo 1 Day Protectant.
The subject of the next series is Erysiphe graminis—ERYSGT. Briefly: Powdery Mildew of Wheat, in vivo whole plant, 24 Hour Protectant. Particulars: Erysiphe, control of fungal infection vs untreated plants, read-out: ERYSGT in vivo 1 Day Protectant.
Another series relates to Septoria tritici—SEPTTR. Description: Leaf Blotch of Wheat, in vivo whole plant, 24 Hour Protectant. Particulars: Zymoseptoria tritici, 24 h, control of fungal infection vs untreated plants, read-out: SEPTTR in vivo 1 Day Protectant.
Series [8] concerns Leptosphaeria nodorum—LEPTNO. Briefly: Glume Blotch of Wheat, in vivo whole plant, 24 Hour Protectant. Particulars: control of fungal infection vs untreated plants; for pest or weed control at 100 ppm: Leptosphaeria, read-out: LEPTNO in vivo 1 Day Protectant.
Setting [9] is: wheat plants sprayed at 100 ppm, inoculated after 24 hours.
The mark [10] stands for this setting: 100 ppm spray, wheat, 24 hour protectant.
The mark [11] stands for this setting: 100 ppm spray, 24 hour protectant, wheat.

The term inhibition denotes how much of the control response was suppressed. In general, melting point refers to the temperature of the solid-liquid transition. As to `COc1ccnc(C(=O)Nc2ccc(Oc3cccc(C(F)(F)F)n3)cc2)c1O` [Compound 463], the melting point is 140 to 141.5 °C. Moreover, the inhibition at 25 ppm in [1] was below 80%. The inhibition at 25 ppm in series [2] was below 80%. In series [3] (25 ppm in the growth medium), the inhibition at 25 ppm is below 80%. Moreover, in series [4] (25 ppm in the growth medium), the inhibition at 25 ppm is below 80%. In addition, the inhibition at 25 ppm with Ustilago maydis (USTIMA) was below 80%. The inhibition at 25 ppm in series [5] is below 80%. For the same molecule, the pest or weed control at 100 ppm in series [6] is below 25%. The pest or weed control at 100 ppm in series [7] (setting [9]) was below 25%. In addition, the pest or weed control at 100 ppm with Erysiphe graminis—ERYSGT (setting [9]) is below 25%. For the same molecule, in the series with Septoria tritici—SEPTTR (setting [9]), the pest or weed control at 100 ppm lay within 25 to 74%. The pest or weed control at 100 ppm in [8] (setting [9]) is below 25%.
Regarding `CCOC(=O)c1cc(Oc2ccc(C(F)(F)F)cc2)ccc1NC(=O)c1nccc(OC)c1O` [Compound 427], the melting point is 145 to 147 °C. In addition, the inhibition at 25 ppm in [1] is below 80%. Further, the inhibition at 25 ppm in series [2] is below 80%. For the same molecule, the inhibition at 25 ppm in [3] (25 ppm in growth medium) is below 80%. The inhibition at 25 ppm in series [4] (25 ppm in growth medium) is below 80%. For the same molecule, the inhibition at 25 ppm in the series on Ustilago maydis (USTIMA) is below 80%. Moreover, in series [5], the inhibition at 25 ppm is below 80%. Moreover, in [6], the pest or weed control at 100 ppm was below 25%. In addition, the pest or weed control at 100 ppm in series [7] (setting [10]) lay in the range of 25 to 74%. For the same molecule, the pest or weed control at 100 ppm with Erysiphe graminis—ERYSGT (setting [10]) was below 25%. The pest or weed control at 100 ppm in the series on Septoria tritici—SEPTTR (setting [10]) was in the range of 25 to 74%. Also, the pest or weed control at 100 ppm in [8] (setting [10]) was in the range of 25 to 74%.
`COc1ccnc(C(=O)Nc2ccc(Oc3ccnc(C(F)(F)F)c3)cc2)c1O` [Compound 465] gave a melting point of 160 to 162 °C. The inhibition at 25 ppm in series [1] was above 80%. Also, in series [2], the inhibition at 25 ppm is below 80%. The inhibition at 25 ppm in series [3] (25 ppm in the growth medium) was below 80%. Also, the inhibition at 25 ppm in [4] (25 ppm in the growth medium) is below 80%. In addition, in the series on Ustilago maydis (USTIMA), the inhibition at 25 ppm is below 80%. Besides, the inhibition at 25 ppm in [5] is below 80%. Besides, in series [6], the pest or weed control at 100 ppm is below 25%. Moreover, in [7] (setting [9]), the pest or weed control at 100 ppm was below 25%. In addition, the pest or weed control at 100 ppm with Erysiphe graminis—ERYSGT (setting [9]) was below 25%. Also, the pest or weed control at 100 ppm in the series on Septoria tritici—SEPTTR (setting [9]) was in the range of 25 to 74%. In addition, the pest or weed control at 100 ppm in series [8] (setting [9]) was in the range of 25 to 74%.
`COc1cccc(CNC(=O)c2ncccc2O)c1OC` [Compound 227] showed a melting point of 78 to 79 °C. Moreover, the inhibition at 25 ppm in [1] was below 80%. In [2], the inhibition at 25 ppm was below 80%. Besides, the inhibition at 25 ppm in series [3] (25 ppm in growth medium) is below 80%. For the same molecule, the inhibition at 25 ppm in series [4] (25 ppm in growth medium) is below 80%. Further, in the series with Ustilago maydis (USTIMA), the inhibition at 25 ppm is below 80%. Further, the inhibition at 25 ppm in [5] was above 80%. Besides, the pest or weed control at 100 ppm in series [6] is below 25%. The pest or weed control at 100 ppm in series [7] (setting [11]) was below 25%. Further, the pest or weed control at 100 ppm in the series on Erysiphe graminis—ERYSGT (setting [11]) was below 25%. In the series with Septoria tritici—SEPTTR (setting [11]), the pest or weed control at 100 ppm was below 25%. Further, the pest or weed control at 100 ppm in series [8] (setting [11]) was below 25%.
`COc1ccnc(C(=O)NC2CSCC(c3ccccc3)C2)c1O` (stereo not drawn) [Compound 324] yielded a melting point of 141 to 143 °C. In addition, in series [1], the inhibition at 25 ppm was below 80%. Further, in series [2], the inhibition at 25 ppm is above 80%. In series [3] (25 ppm in growth medium), the inhibition at 25 ppm was above 80%. The inhibition at 25 ppm in series [4] (25 ppm in growth medium) was above 80%. Further, the inhibition at 25 ppm in the series on Ustilago maydis (USTIMA) was above 80%. For the same molecule, in series [5], the inhibition at 25 ppm was above 80%. The pest or weed control at 100 ppm in series [6] is below 25%. The pest or weed control at 100 ppm in series [7] (setting [11]) lay within 25 to 74%. Also, in the series on Erysiphe graminis—ERYSGT (setting [11]), the pest or weed control at 100 ppm lay within 25 to 74%. In addition, in the series on Septoria tritici—SEPTTR (setting [11]), the pest or weed control at 100 ppm was in the range of 25 to 74%. In addition, in series [8] (setting [11]), the “LEPTNO in vivo 1 Day Protectant” value is listed as “+ +”.
With `Cc1ccnc(C(=O)NC2COC(=O)[C@H](Cc3ccccc3)[C@@H](OC(=O)C(C)C)[C@H](C)OC2=O)c1O` (stereo partly drawn) [Compound 237], the melting point lay within 122 to 134 °C. For the same molecule, the inhibition at 25 ppm in [1] is below 80%. In [2], the inhibition at 25 ppm was below 80%. For the same molecule, the inhibition at 25 ppm in [3] (25 ppm in growth medium) is below 80%. Further, the inhibition at 25 ppm in series [4] (25 ppm in growth medium) was below 80%. Further, in the series with Ustilago maydis (USTIMA), the inhibition at 25 ppm is below 80%. Moreover, in series [5], the inhibition at 25 ppm is below 80%. In addition, the pest or weed control at 100 ppm in series [6] was below 25%. Also, in series [7] (setting [11]), the “PUCCRT in vivo 1 Day Protectant” value was “+ +”. Moreover, in the series with Erysiphe graminis—ERYSGT (setting [11]), the pest or weed control at 100 ppm is below 25%. In addition, the pest or weed control at 100 ppm with Septoria tritici—SEPTTR (setting [11]) lay in the range of 25 to 74%. For the same molecule, in series [8] (setting [11]), the pest or weed control at 100 ppm fell in the range of 25 to 74%.
Molecule `COc1ccnc(C(=O)NC2CC(C)(C)CC(C)(C)C2)c1O` [Compound 250] gave a melting point of 104 to 106 °C. Further, the inhibition at 25 ppm in series [1] was below 80%. Further, the inhibition at 25 ppm in series [2] is below 80%. The inhibition at 25 ppm in [3] (25 ppm in growth medium) was below 80%. Also, the inhibition at 25 ppm in series [4] (25 ppm in growth medium) is above 80%. The inhibition at 25 ppm in the series with Ustilago maydis (USTIMA) is below 80%. Also, the inhibition at 25 ppm in series [5] was above 80%. Besides, the pest or weed control at 100 ppm in series [6] was in the range of 25 to 74%. Moreover, the pest or weed control at 100 ppm in [7] (setting [11]) fell in the range of 25 to 74%. In the series with Erysiphe graminis—ERYSGT (setting [11]), the pest or weed control at 100 ppm is below 25%. Moreover, in the series on Septoria tritici—SEPTTR (setting [11]), the pest or weed control at 100 ppm was below 25%. Further, the pest or weed control at 100 ppm in series [8] (setting [11]) was in the range of 25 to 74%.
With `O=C(NC(Cc1ccccc1)c1ccccc1)c1cccnc1O` (stereo not drawn) [Compound 519], the melting point fell in the range of 190 to 192 °C. In addition, the inhibition at 25 ppm in series [1] was below 80%. Further, the inhibition at 25 ppm in series [2] is below 80%. The inhibition at 25 ppm in series [3] (25 ppm in the growth medium) is below 80%. Moreover, in series [4] (25 ppm in the growth medium), the inhibition at 25 ppm was below 80%. In the series with Ustilago maydis (USTIMA), the inhibition at 25 ppm is below 80%. Moreover, the inhibition at 25 ppm in series [5] was below 80%. Moreover, the pest or weed control at 100 ppm in [6] was below 25%. In addition, in series [7] (setting [9]), the pest or weed control at 100 ppm is below 25%. Moreover, the pest or weed control at 100 ppm with Erysiphe graminis—ERYSGT (setting [9]) is below 25%. In the series with Septoria tritici—SEPTTR (setting [9]), the pest or weed control at 100 ppm is below 25%. Moreover, in [8] (setting [9]), the pest or weed control at 100 ppm is 25 to 74%.
In turn, `COc1ccnc(C(=O)Nc2ccc(Oc3ccc(C(F)(F)F)cc3)cn2)c1O` [Compound 470] returned a melting point of 173 to 175 °C. The inhibition at 25 ppm in series [1] was above 80%. Further, the inhibition at 25 ppm in series [2] is above 80%. Besides, the inhibition at 25 ppm in series [3] (25 ppm in the growth medium) was above 80%. Also, the inhibition at 25 ppm in series [4] (25 ppm in the growth medium) was above 80%. Besides, the inhibition at 25 ppm in the series with Ustilago maydis (USTIMA) is below 80%. In series [5], the inhibition at 25 ppm was below 80%. Besides, in series [6], the pest or weed control at 100 ppm is below 25%. In addition, the pest or weed control at 100 ppm in series [7] (setting [9]) was in the range of 25 to 74%. In addition, the pest or weed control at 100 ppm with Erysiphe graminis—ERYSGT (setting [9]) was in the range of 25 to 74%. For the same molecule, the pest or weed control at 100 ppm with Septoria tritici—SEPTTR (setting [9]) lay in the range of 25 to 74%. Also, in series [8] (setting [9]), the pest or weed control at 100 ppm lay in the range of 25 to 74%.
The molecule `Cc1ccc(C(=O)NC2CC(C)(C)CC(C)(C)C2)c(O)n1` [Compound 524] showed a melting point of 307 to 308 °C. Further, the inhibition at 25 ppm in [1] was below 80%. In addition, the inhibition at 25 ppm in series [2] was below 80%. The inhibition at 25 ppm in [3] (25 ppm in the growth medium) is below 80%. Besides, the inhibition at 25 ppm in [4] (25 ppm in the growth medium) is below 80%. Moreover, in the series with Ustilago maydis (USTIMA), the inhibition at 25 ppm is below 80%. For the same molecule, the inhibition at 25 ppm in [5] is below 80%. In addition, the pest or weed control at 100 ppm in [6] was below 25%. The pest or weed control at 100 ppm in [7] (setting [9]) was below 25%. Besides, in the series with Erysiphe graminis—ERYSGT (setting [9]), the pest or weed control at 100 ppm is below 25%. For the same molecule, the pest or weed control at 100 ppm with Septoria tritici—SEPTTR (setting [9]) lay in the range of 25 to 74%. Besides, the pest or weed control at 100 ppm in series [8] (setting [9]) is below 25%.

The record behind these values is patent US6706740B2, “Fungicidal heterocyclic aromatic amides and their compositions, methods of use and preparation” (Dow AgroSciences LLC, priority 1999, dated 2004).
